Residue numbers refer to the chain shown, from its start.
Legend:
[1] = target: T1, Glycine receptor (alpha-1/beta) (Homo sapiens, UniProt P23415+P48167); assay: Antagonist activity at recombinant human glycine receptor alpha 1 beta expressed in human tsA201 cells assessed as inhibition of glycine-induced receptor activation after 30 mins by FLIPR membrane potential blue assay; format: cell-based
Homo sapiens = species: Homo sapiens; assay: Selectivity ratio of IC50 for recombinant human glycine receptor alpha 1 beta expressed in human tsA201 cells to IC50 for recombinant human glycine receptor alpha 1 expressed in human tsA201 cells; format: cell-based
[2] = target: T2, Glycine receptor subunit alpha-1 (Homo sapiens, UniProt P23415); assay: Antagonist activity at recombinant human glycine receptor alpha 1 expressed in human tsA201 cells assessed as inhibition of glycine-induced receptor activation after 30 mins by FLIPR membrane potential blue assay; format: cell-based
T2 sequence (P23415 whole entry): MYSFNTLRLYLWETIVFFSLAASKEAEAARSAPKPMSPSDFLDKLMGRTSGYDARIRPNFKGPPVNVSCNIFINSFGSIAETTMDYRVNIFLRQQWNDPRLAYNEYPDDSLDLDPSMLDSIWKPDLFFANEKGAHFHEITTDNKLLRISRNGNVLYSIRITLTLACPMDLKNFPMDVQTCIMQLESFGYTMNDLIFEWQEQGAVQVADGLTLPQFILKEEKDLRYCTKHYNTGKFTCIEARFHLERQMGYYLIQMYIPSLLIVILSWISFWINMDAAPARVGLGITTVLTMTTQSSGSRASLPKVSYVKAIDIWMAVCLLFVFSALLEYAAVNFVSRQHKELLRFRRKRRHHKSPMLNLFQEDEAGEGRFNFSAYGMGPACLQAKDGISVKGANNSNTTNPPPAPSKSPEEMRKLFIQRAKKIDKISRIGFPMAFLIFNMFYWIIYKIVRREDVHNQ

[3] = target: T1, Glycine receptor (alpha-1/beta); assay: Antagonist activity at recombinant human glycine receptor alpha 1 beta expressed in HEK293 cells assessed as inhibition of glycine-induced current at -50mV holding potential by whole cell patch-clamp method; format: cell-based
[4] = target: T2, Glycine receptor subunit alpha-1; assay: Antagonist activity at recombinant human glycine receptor alpha 1 expressed in HEK293 cells assessed as inhibition of glycine-induced current at -50 mV holding potential by whole cell patch-clamp method; format: cell-based
[5] = target: T3, Glycine receptor subunit alpha-1 (Rattus norvegicus, UniProt P07727)
T3 sequence (P07727 whole entry): T2 sequence (P23415 whole entry) with L9F, E27D, E362D, A365G, S396N, P402A, Q457K
Description: Displacement of [3H]strychnine from glycine receptor alpha 1 in rat brain synaptic membranes

[6] = target: T2, Glycine receptor subunit alpha-1; assay: Displacement of [3H]strychnine from recombinant human glycine receptor alpha 1 expressed in HEK293 cell membranes after 30 mins by liquid scintillation counting method

T1 sequence (P48167 whole entry, one chain of several): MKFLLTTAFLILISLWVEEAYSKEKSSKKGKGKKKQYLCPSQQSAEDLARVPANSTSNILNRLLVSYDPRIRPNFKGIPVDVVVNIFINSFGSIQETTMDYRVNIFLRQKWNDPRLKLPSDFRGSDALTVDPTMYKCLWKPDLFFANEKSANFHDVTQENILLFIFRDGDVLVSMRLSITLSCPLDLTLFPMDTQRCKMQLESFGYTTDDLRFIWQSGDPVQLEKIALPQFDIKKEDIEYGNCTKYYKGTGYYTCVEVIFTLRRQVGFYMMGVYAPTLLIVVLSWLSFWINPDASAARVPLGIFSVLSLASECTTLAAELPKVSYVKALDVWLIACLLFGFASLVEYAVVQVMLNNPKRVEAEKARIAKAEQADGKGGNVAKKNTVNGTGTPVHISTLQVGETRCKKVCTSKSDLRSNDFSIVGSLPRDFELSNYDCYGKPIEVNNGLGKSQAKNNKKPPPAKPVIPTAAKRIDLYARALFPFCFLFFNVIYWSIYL

Compound | IC50 [1] [nM] | Ratio IC50 (Homo sapiens) | IC50 ([2]; read-out: IC50) [nM] | IC50 [3] [nM] | IC50 [4] [nM] | Ki [5] [nM] | Ki [6] [nM] | IC50 ([2]; read-out: pIC50 (converted)) [nM]
CC(C)CO/N=C1/C(=O)N2c3ccccc3[C@@]34CCN5CC6=CCO[C@@H]1[C@@H]([C@H]23)[C@H]6C[C@H]54 | 1100 | 3 to 4 | 260 |  |  |  |  | 
CCCCCO/N=C1/C(=O)N2c3ccccc3[C@@]34CCN5CC6=CCO[C@@H]1[C@@H]([C@H]23)[C@H]6C[C@H]54 | 710 | 3 to 4 | 250 |  |  |  |  | 
CCC[N+]12CC[C@@]34c5ccccc5N5C(=O)C[C@@H]6OCC=C(C1)[C@H](C[C@@H]32)[C@@H]6[C@H]54 (stereo partly specified) | 13000 |  | 10000 | 6530 | 4590 |  |  | 
O=C1C[C@@H]2OCC=C3CN4CC[C@]56c7ccccc7N1[C@H]5[C@H]2[C@H]3C[C@H]46 [STRYCHNINE] | 180 |  | 93 | 58 | 51 | 12 | 23 | 
O=C1/C(=N/OCc2ccccc2)[C@@H]2OCC=C3CN4CC[C@]56c7ccccc7N1[C@H]5[C@H]2[C@H]3C[C@H]46 | 310 |  | 170 |  |  |  |  | 
COC(=O)CO/N=C1/C(=O)N2c3ccccc3[C@@]34CCN5CC6=CCO[C@@H]1[C@@H]([C@H]23)[C@H]6C[C@H]54 | 670 |  | 220 |  |  |  |  | 
CO/N=C1/C(=O)N2c3ccccc3[C@@]34CCN5CC6=CCO[C@@H]1[C@@H]([C@H]23)[C@H]6C[C@H]54 | 210 |  | 100 | 56 | 75 |  | 189 | 
O=C1C[C@@]23c4ccccc4N4C(=O)C[C@@H]5OCC=C6CN1[C@H]2C[C@@H]6[C@@H]5[C@H]43 | 9800 |  | 6900 |  |  |  |  | 
C#CCO/N=C1/C(=O)N2c3ccccc3[C@@]34CCN5CC6=CCO[C@@H]1[C@@H]([C@H]23)[C@H]6C[C@H]54 | 240 |  | 52 | 43 | 59 |  |  | 
COC(=O)CCCCO/N=C1/C(=O)N2c3ccccc3[C@@]34CCN5CC6=CCO[C@@H]1[C@@H]([C@H]23)[C@H]6C[C@H]54 | 1500 |  | 720 |  |  |  |  | 
CCC(=O)Nc1ccc2c(c1)[C@@]13CCN4CC5=CCO[C@H]6CC(=O)N2[C@H]1[C@H]6[C@H]5C[C@H]43 | 940 |  | 540 | 311 | 201 |  | 67 | 
C=CCO/N=C1/C(=O)N2c3ccccc3[C@@]34CCN5CC6=CCO[C@@H]1[C@@H]([C@H]23)[C@H]6C[C@H]54 | 150 |  | 95 | 46 | 49 |  | 370 | 
CCCO/N=C1/C(=O)N2c3ccccc3[C@@]34CCN5CC6=CCO[C@@H]1[C@@H]([C@H]23)[C@H]6C[C@H]54 | 350 | 3 to 4 | 110 | 116 | 109 |  | 241 | 
O=C1/C(=N/OCCc2ccccc2)[C@@H]2OCC=C3CN4CC[C@]56c7ccccc7N1[C@H]5[C@H]2[C@H]3C[C@H]46 | 780 |  | 690 |  |  |  |  | 708
CCCCO/N=C1/C(=O)N2c3ccccc3[C@@]34CCN5CC6=CCO[C@@H]1[C@@H]([C@H]23)[C@H]6C[C@H]54 | 880 |  | 370 |  |  |  |  | 380
Nc1ccc2c(c1)[C@@]13CCN4CC5=CCO[C@H]6CC(=O)N2[C@H]1[C@H]6[C@H]5C[C@H]43 | 270 | 3 to 4 | 77 | 97 | 76 | 18 |  | 
